Reference: paper PMC10452181, “Synthesis and Biological Evaluation of Cyclobutane-Based β3 Integrin Antagonists: A Novel Approach to Targeting Integrins for Cancer Therapy” (Cancers, 2023)

What was measured:
αvβ3 = target: T1, αvβ3 (Homo sapiens, UniProt P05106+P06756); assay: Sk-Mel-2 cell adhesion to immobilised fibronectin (cell-binding assay, MTT readout); type: cell-based; conditions: Sk-Mel-2 adhesion to Fn, mean ± SD
T1 construct: endogenous in cells; host or cells: SK-Mel-2 melanoma cells
Description: First, 96-well plates (Corning, VWR) were coated overnight at 4 °C with 0.5 μg/well fibronectin (Sigma). SK-Mel-2 cells were trypsinised, washed and resuspended in RPMI medium only at 10^5 cells/mL. Cells (100 µL/well) were treated with compound (DMSO final concentration 0.1%) at the indicated concentration for 4 hrs on a rotary shaker. Plates were washed (3 × PBS) and blocked with PBS/5% BSA for 2 hrs at 37 °C prior to adding the cells. Cells were incubated on the plates at 37 °C in a humidified chamber with 5% CO2 for 1 hr. The plates were washed 3× with PBS and a 200 µL/well RPMI medium containing 10% FCS added. The plates were incubated overnight at 37 °C as above. Finally, 0.5 mg/mL of 3-(4,5-dimethythiazol-2-yl)-2,5-diphenyl tetrazolium bromide (MTT) was added to each well and the plates incubated for a further 4 h. The medium was removed, and the insoluble formazan dissolved in 150 µL of DMSO. Absorbance was measured at 540 nm using a Thermo Multiskan EX (Thermofisher, UK)and Ascent Software (v2.6). Total binding was determined based on controls lacking any compounds (100% binding) in fibronectin-coated wells and uncoated wells blocked with BSA (0% binding) and corrected for background (no cells, fibronectin-coated).
As an initial test of anti-β3 activity, the ability of compounds to inhibit the adhesion of melanoma cells expressing high levels of αvβ3 and low levels of other RGD-binding integrins such as αvβ5 and α5β1 to immobilised fibronectin was evaluated.
Cells were seeded onto precoated plates in the presence or absence of putative antagonists and the number of adherent cells quantified colorimetrically.

M14 cells = assay: cells; type: cell-based, human; conditions: M14 scratch wound, 24 h, mean ± SD; read-out: Migration IC50
Description: M14 cells (4 × 10^5/mL in RPMI 1640 medium) were seeded in six-well plates and incubated at 37 °C in a 5% CO2 humidified atmosphere for 48 h. The resulting confluent monolayer was scratched with a sterile P200 pipette tip to create a gap (approximately 2 cm in length and 650 μm in width) in the centre of the well. The medium was removed, and the cells washed with Hank’s balanced salt solution (HBSS) (1 mL) and replaced with a medium containing the test antagonist. After 24 h, the cells were washed twice with HBSS and fixed with ice-pre-cooled methanol for thirty minutes at −20 °C. Following hydration with two washes in PBS, the monolayers were counterstained with Harris’s haematoxylin solution for two minutes, then washed in tap water for one minute and left to dry at room temperature. The plates were observed using an inverted microscope, and digital images captured.
The anti-αvβ3 activity of selected compounds was confirmed in a wound-healing assay (Figure 3). A number of cell lines were initially investigated for their suitability in this assay. The Sk-Mel-2 cell line which adhered well to fibronectin in the adhesion assay migrated very slowly; therefore, M14 melanoma cells which combined high levels of αvβ3 with rapid migration and low levels of proliferation over the assay period (Supplementary Figure S4) were selected.

Sk-Mel-2 = assay: in vitro; type: cell-based, human
Description: (§1) Before use in cell-based assays of integrin function, the effect of compounds on cell proliferation was tested using the MTT assay to avoid adhesion results being confounded by cell death (Supplementary Table S1). The effect of compounds on cell adhesion was then initially tested at a single, nontoxic concentration to identify active antagonists for further characterisation; those displaying a promising activity in the adhesion assay were tested at a wider range of concentrations to determine the IC50 (Table 2). […] Nevertheless, it is a cost-effective initial screening method. page 4: Table S1. Cytotoxicity of compounds on the cell lines used in the functional assays (measured by MTT assay). Cells (2000 cells/well for Sk-Mel-2; 1 x 10^4 cells/mL for M14) were incubated for 96 hours at 37 ° C in a total volume of 200 μL/well (180 μL medium + 20 μ L test compound solution). After 96 hours, the medium was replaced by fresh medium containing 0.5 mg/ml (end conc.) MTT per well, incubated for 4 h then the plate processed and read as described in the main text. […] ICT9053 41 naphthyridine 1 NHSO2Mes H Ester 52.6 ± 0.6 72.7 ± 9.8 ICT9065 42 naphthyridine 1 H H Ester >100 - ICT9079 43 naphthyridine 0 NHSO2Mes H Ester ~100 - ICT9061 44 naphthyridineT 1 NHSO2Mes H Ester 46.8 ± 10.7 - […] Ester 65.4 ± 11.1 >100 […] Ester 9.6 ± 5.7 >100 […] Ester >100 - […] Ester 54.6 ± 11.0 - […] Ester >5 3.3 ± 0.8 […] ICT9028 51 pyrimidine 2 NHSO2Ph H Acid >100 - ICT9031 52 pyrimidineT 1 NHSO2Mes H Acid >100 - ICT9090 53 pyrimidineT 2 NHSO2Mes H Acid >50 - ICT9029 54 pyrimidineT 2 NHSO2Ph H Acid >100 - ICT9063 55 naphthyridine 1 NHSO2Mes H Acid 61.7 ± 2.8 - […] Acid 45.5 ± 7.9 >100 […] 42.5 ± 1.8 >50 RGDS >50 - T trans configuration of cyclobutane sidechains.

M14 = assay: Cytotoxicity by MTT assay, 96 h, M14; type: cell-based, human; conditions: MTT, 96 hours
Description: as §1

αIIbβ3 = target: T2, αIIbβ3 (Homo sapiens, UniProt P05106+P08514); assay: αIIbβ3/fibrinogen purified protein binding ELISA; conditions: mean ± SD; for IC50: read-out: IC50 (αIIbβ3/Fg)
T2 construct: purchased Sigma
Description: ELISA assays were performed as previously described with minor modifications. Briefly, serial dilutions of compounds were prepared in dimethyl sulfoxide (DMSO). C8 Maxi Immuno modules (Fisher Scientific) were incubated overnight at 4 °C with 0.5 μg/well of fibrinogen (Sigma) in sterile phosphate buffered saline (PBS, 0.2 g/L KCl, 8.0 g/L NaCl, 0.2 KH2PO4, 1.15 g/L Na2HPO4, pH 7.4). All subsequent wash steps were performed using 25 mM Tris, pH 7.6, 150 mM NaCl, 1 mM MnCl2, 1 mg/mL BSA, and binding/inhibition was carried out in 25 mM Tris, pH 7.6, 150 mM NaCl, 1 mM MnCl2, 1 mM MgCl2, 1 mM CaCl2, 1 mg/mL BSA.
Wells were washed and blocked with a blocking solution (PBS, 0.1% Tween 20, 3% BSA) for 1 h at 37 °C. Compounds were added to the wells at indicated concentrations (final 0.5% DMSO) in the presence of 0.5 µg/well αIIbβ3 (Sigma) and incubated at room temp for 1 h. After 3 washes, primary anti-αIIb (1:200 dilution, Santa Cruz Biotech, Heidelberg, Germany) and antigoat–HRP (1:500 dilution, Dako, Agilent, Santa Clara, CA, USA) were added at room temp for 1 h. The wells were washed and incubated with 0.1 mg/mL tetra-methylbenzidine (Sigma) for 25 min and the reaction was stopped with 1N H2SO4 (100 μL/well). The absorbance was measured at 450 nm using a Multiscan Spectrum reader (Thermo Scientific, Thermofisher, UK) and SkanIT RE (v2.4.4.5) software. Results were plotted as percent binding vs. log concentration and IC50 values determined.

T2 sequence (P08514 32-887 limits assumed): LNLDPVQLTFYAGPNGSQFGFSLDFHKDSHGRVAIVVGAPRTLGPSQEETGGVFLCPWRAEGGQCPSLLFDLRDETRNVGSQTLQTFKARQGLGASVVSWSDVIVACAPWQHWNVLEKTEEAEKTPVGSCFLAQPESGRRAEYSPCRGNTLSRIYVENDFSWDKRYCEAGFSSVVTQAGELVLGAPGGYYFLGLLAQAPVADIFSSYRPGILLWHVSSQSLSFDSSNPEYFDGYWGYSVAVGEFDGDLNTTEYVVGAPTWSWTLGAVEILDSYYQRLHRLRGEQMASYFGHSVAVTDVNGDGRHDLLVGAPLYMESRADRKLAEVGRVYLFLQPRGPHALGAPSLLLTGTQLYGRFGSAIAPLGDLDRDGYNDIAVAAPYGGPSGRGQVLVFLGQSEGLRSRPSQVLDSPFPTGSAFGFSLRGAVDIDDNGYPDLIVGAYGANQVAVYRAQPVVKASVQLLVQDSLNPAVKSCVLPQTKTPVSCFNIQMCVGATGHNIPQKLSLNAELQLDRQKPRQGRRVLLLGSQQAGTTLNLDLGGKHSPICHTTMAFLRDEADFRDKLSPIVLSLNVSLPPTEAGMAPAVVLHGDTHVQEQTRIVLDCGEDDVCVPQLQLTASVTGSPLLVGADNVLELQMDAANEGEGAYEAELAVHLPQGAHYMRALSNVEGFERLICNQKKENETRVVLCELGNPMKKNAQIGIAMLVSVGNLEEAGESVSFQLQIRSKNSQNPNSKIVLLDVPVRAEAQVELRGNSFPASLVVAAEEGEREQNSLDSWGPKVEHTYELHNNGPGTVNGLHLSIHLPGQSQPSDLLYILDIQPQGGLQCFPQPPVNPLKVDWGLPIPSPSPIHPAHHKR
T2 sequence (P08514 891-1039 partner limits assumed): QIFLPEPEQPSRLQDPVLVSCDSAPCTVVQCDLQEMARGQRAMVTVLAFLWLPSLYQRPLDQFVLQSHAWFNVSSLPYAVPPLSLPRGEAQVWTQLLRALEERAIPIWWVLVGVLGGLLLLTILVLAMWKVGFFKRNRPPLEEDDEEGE
T2 sequence (P05106 27-788): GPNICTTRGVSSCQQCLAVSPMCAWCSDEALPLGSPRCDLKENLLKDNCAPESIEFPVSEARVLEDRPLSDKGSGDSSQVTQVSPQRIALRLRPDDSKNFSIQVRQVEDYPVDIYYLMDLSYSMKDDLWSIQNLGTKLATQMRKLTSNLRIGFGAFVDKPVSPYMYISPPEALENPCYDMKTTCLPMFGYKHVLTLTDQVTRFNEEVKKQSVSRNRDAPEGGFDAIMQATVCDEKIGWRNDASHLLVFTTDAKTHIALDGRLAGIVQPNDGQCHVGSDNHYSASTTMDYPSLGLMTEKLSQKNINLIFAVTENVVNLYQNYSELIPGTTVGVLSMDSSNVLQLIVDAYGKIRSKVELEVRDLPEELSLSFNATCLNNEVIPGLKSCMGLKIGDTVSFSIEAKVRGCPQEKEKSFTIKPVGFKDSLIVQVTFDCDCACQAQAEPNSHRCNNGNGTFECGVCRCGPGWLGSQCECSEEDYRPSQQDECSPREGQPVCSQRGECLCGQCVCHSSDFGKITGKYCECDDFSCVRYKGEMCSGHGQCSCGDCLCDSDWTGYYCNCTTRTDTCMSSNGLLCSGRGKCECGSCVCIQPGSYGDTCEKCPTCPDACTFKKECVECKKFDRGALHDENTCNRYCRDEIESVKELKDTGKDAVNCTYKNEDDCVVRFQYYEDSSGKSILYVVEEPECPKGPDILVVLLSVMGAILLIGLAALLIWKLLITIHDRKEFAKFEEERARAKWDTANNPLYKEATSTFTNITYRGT
T1 sequence (P06756 31-889 limits assumed): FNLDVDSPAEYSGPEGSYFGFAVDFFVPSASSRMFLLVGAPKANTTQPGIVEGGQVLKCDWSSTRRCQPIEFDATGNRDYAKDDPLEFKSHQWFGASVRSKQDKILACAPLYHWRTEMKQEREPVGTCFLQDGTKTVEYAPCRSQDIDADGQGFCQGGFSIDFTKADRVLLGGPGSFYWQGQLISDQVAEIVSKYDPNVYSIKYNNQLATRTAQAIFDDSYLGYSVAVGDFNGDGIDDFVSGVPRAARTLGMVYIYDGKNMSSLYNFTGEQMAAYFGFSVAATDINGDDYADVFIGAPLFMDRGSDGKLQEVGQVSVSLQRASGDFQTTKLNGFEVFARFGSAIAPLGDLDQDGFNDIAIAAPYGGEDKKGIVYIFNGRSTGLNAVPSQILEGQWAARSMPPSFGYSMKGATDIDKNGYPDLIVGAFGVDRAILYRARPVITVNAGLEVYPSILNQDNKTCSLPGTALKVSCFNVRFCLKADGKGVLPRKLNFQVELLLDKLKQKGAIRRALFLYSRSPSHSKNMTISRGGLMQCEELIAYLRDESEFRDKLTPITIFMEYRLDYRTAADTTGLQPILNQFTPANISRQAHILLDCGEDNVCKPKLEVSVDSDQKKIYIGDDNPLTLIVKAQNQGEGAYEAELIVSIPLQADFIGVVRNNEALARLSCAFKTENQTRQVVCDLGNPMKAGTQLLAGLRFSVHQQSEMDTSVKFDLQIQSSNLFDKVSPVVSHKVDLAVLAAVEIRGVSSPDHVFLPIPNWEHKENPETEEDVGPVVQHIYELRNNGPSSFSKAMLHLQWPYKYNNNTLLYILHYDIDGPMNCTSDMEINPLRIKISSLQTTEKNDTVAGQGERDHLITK
T1 sequence (P06756 891-1048 partner limits assumed): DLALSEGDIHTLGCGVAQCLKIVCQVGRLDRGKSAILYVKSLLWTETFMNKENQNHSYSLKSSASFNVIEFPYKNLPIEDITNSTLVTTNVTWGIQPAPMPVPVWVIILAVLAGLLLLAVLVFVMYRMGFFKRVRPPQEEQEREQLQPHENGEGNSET
T1 sequence (P05106 27-788): as the sequence (P05106 27-788) above

Structure (SMILES) | Adhesion % Inhibition @ 5 μM (αvβ3) | IC50 (M14 cells) | IC50 (Sk-Mel-2) | IC50 (M14) | IC50 (αvβ3) | % Inhibition (αIIbβ3/Fg) @ 50 μM (αIIbβ3) | IC50 (αIIbβ3) | Adhesion % Inhibition @ 50 μM (αvβ3)
COC(=O)[C@H](CNC(=O)[C@H]1C[C@H](CCCNc2ncccn2)C1)NS(=O)(=O)c1c(C)cc(C)cc1C [ICT9020 24] | 19.1 ± 14.2% | > 10 µM | 57.8 ± 1.9 µM | 36 ± 18.6 µM |  |  |  | 
COC(=O)[C@H](CNC(=O)[C@H]1C[C@H](CCc2ccc3cccnc3n2)C1)NS(=O)(=O)c1c(C)cc(C)cc1C [ICT9053 41, (S)-methyl 3-((1r,3r)-3-(2-(1,8-naphthyridin-2-yl)ethyl)cyclobutanecarboxamido)-2-(2,4,6-trimethylphenylsulfonamido)propanoate] | 27.5 ± 32.9% | > 10 µM | 52.6 ± 0.6 µM | 72.7 ± 9.8 µM | > 5 µM | 29.4 ± 17.6% | > 100 µM | 
COC(=O)[C@H](CNC(=O)[C@H]1C[C@@H](CCCNc2ncccn2)C1)NS(=O)(=O)c1c(C)cc(C)cc1C [ICT9025 28, (S)-methyl 3-((1s,3s)-3-(3-(pyrimidin-2-ylamino)propyl)cyclobutanecarboxamido)-2-(2,4,6-trimethylphenylsulfonamido)propanoate] | 0 ± 19.6% |  | 55.3 ± 1.6 µM |  | 38 ± 11 µM | 35.0 ± 11.3% | > 100 µM | 92.5 ± 8.1%
COC(=O)[C@H](CNC(=O)[C@H]1C[C@H](CCNc2ncccn2)C1)NS(=O)(=O)c1c(C)cc(C)cc1C [ICT9024 27, (S)-methyl 3-((1r,3s)-3-(2-(pyrimidin-2-ylamino)ethyl)cyclobutanecarboxamido)-2-(2,4,6-trimethylphenylsulfonamido)propanoate] | 39.4 ± 17.1% |  | 55.9 ± 4.9 µM |  | 13 ± 3 µM | 33.5 ± 2.8% | 50 ± 5 µM | 94.2 ± 4.1%
Cc1cc(C)c(S(=O)(=O)N[C@@H](CNC(=O)C2CC(CCNc3ncccn3)C2)C(=O)O)c(C)c1 (stereo partly drawn) [ICT9030 50, (S)-3-((1s,3r)-3-(2-(pyrimidin-2-ylamino)ethyl)cyclobutanecarboxamido)-2-(2,4,6-trimethylphenylsulfonamido)propanoic acid] | 4.5 ± 19.6% |  | 90.2 ± 4.3 µM |  | 50 ± 7 µM | 91.2 ± 9.6% | 3.5 ± 1.9 µM | 51 ± 9.0%
COC(=O)[C@H](CNC(=O)C1CC(CCNc2ncccn2)C1)NS(=O)(=O)c1c(C)cc(C)cc1C (stereo partly drawn) [ICT9019 21, (S)-Methyl 3-((1s,3r)-3-(2-(pyrimidin-2-ylamino)ethyl)cyclobutanecarboxamido)-2-(2,4,6-trimethylphenylsulfonamido)propanoate] | 35.2 ± 19.1% | 9.5 ± 0.9 µM | 53.8 ± 3.2 µM | > 100 µM | 50 ± 5 µM | 15.6 ± 14.5% |  | 48.3 ± 4.1%
COC(=O)[C@H](CNC(=O)[C@H]1C[C@@H](CCc2ccc3c(n2)NCCC3)C1)NS(=O)(=O)c1c(C)cc(C)cc1C [ICT9062 49, (S)-methyl 3-((1s,3s)-3-(2-(5,6,7,8-tetrahydro-1,8-naphthyridin-2-yl)ethyl)cyclobutanecarboxamido)-2-(2,4,6-trimethylphenylsulfonamido)propanoate] | 72.3 ± 9.4% | 0.15 ± 0.03 µM | > 5 µM | 3.3 ± 0.8 µM |  |  |  | 
COC(=O)[C@H](CNC(=O)[C@H]1C[C@H](CCCCNc2ncccn2)C1)NS(=O)(=O)c1c(C)cc(C)cc1C [ICT9018 26, (S)-methyl 3-((1r,3r)-3-(4-(pyrimidin-2-ylamino)butyl)cyclobutanecarboxamido)-2-(2,4,6-trimethylphenylsulfonamido)propanoate] | 20.9 ± 27.5% | > 10 µM | 72 ± 6.5 µM | > 100 µM |  |  |  | 
COC(=O)[C@H](CNC(=O)C1CC(CCc2ccc3c(n2)NCCC3)C1)NS(=O)(=O)c1ccccc1 (stereo partly drawn) [ICT9057 45, (S)-methyl 2-(phenylsulfonamido)-3-((1r,3r)-3-(2-(5,6,7,8-tetrahydro-1,8-naphthyridin-2-yl)ethyl)cyclobutanecarboxamido)propanoate] | 59.5 ± 24.0% | 1 ± 0.09 µM | 65.4 ± 11.1 µM | > 100 µM |  |  |  | 
O=C(O)[C@H](CNC(=O)[C@H]1C[C@@H](CCCNc2ncccn2)C1)NS(=O)(=O)c1ccccc1 [ICT9029 54, (S)-2-(phenylsulfonamido)-3-((1s,3s)-3-(3-(pyrimidin-2-ylamino)propyl)cyclobutanecarboxamido)propanoic acid] |  |  | > 100 µM |  | > 50 µM | 100 ± 6% | 3.3 ± 3.3 µM | 42.5 ± 14.1%
